Results: the supplement of paper PMC10307832

Key:
Assay in all cases: relative viability (nuclei count vs DMSO), 5 days (fraction); higher = more cells survive
VX-702 + Trametinib = compound: NC(=O)c1ccc(N(C(N)=O)c2c(F)cccc2F)nc1-c1ccc(F)cc1F [VX-702] + CC(=O)Nc1cccc(-n2c(=O)n(C3CC3)c(=O)c3c(Nc4ccc(I)cc4F)n(C)c(=O)c(C)c32)c1 [Trametinib] (partner 0.02 µM)
Method in brief: (§1)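 Cells from lung cancer lines were seeded into 1536-well plates and, one day later, dosed by pin tool. Treatments were either a single drug or a fixed dose of an anchor drug with five library-drug doses (not always all listed) in √10 steps. After 5 days, nuclei were stained in a one-step fixation (final 0.05% Triton X-100, 1% formaldehyde, 1 ug/ml Hoechst) and counted on 4× images, and relative viability is the treated-to-vehicle nuclei ratio, as the median of duplicate plates.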

VX-702 + Foretinib = compound: NC(=O)c1ccc(N(C(N)=O)c2c(F)cccc2F)nc1-c1ccc(F)cc1F [VX-702] + COc1cc2c(Oc3ccc(NC(=O)C4(C(=O)Nc5ccc(F)cc5)CC4)cc3F)ccnc2cc1OCCCN1CCOCC1 [Foretinib] (partner 0.25 µM)
Method in brief: as §1

VX-702 + AZD7762 = compound: NC(=O)c1ccc(N(C(N)=O)c2c(F)cccc2F)nc1-c1ccc(F)cc1F [VX-702] + NC(=O)Nc1cc(-c2cccc(F)c2)sc1C(=O)N[C@H]1CCCNC1 [AZD7762] (partner 0.2 µM)
Method in brief: as §1

VX-702 + Olaparib = compound: NC(=O)c1ccc(N(C(N)=O)c2c(F)cccc2F)nc1-c1ccc(F)cc1F [VX-702] + O=C(c1cc(Cc2n[nH]c(=O)c3ccccc23)ccc1F)N1CCN(C(=O)C2CC2)CC1 [Olaparib] (partner 8 µM)
Method in brief: as §1

Dabrafenib + Palbociclib = compound: CC(C)(C)c1nc(-c2cccc(NS(=O)(=O)c3c(F)cccc3F)c2F)c(-c2ccnc(N)n2)s1 [Dabrafenib] + CC(=O)c1c(C)c2cnc(Nc3ccc(N4CCNCC4)cn3)nc2n(C2CCCC2)c1=O [Palbociclib] (partner 0.5 µM)
Method in brief: as §1

Cell Line: SW 900
- relative viability (VX-702 + Trametinib; first compound 0.02 µM): 0.775
- relative viability (VX-702 + Trametinib; first compound 0.2 µM): 0.871
- relative viability (VX-702 + Trametinib; first compound 0.6325 µM): 0.856
- relative viability (VX-702 + Trametinib; first compound 2 µM): 0.795
- relative viability (VX-702 + Foretinib; first compound 0.02 µM): 0.726
- relative viability (VX-702 + Foretinib; first compound 0.2 µM): 1.02
- relative viability (VX-702 + Foretinib; first compound 0.6325 µM): 0.9
- relative viability (VX-702 + Foretinib; first compound 2 µM): 0.958
- relative viability (VX-702 + AZD7762; first compound 0.02 µM): 0.611
- relative viability (VX-702 + AZD7762; first compound 0.2 µM): 0.502
- relative viability (VX-702 + AZD7762; first compound 0.6325 µM): 0.492
- relative viability (VX-702 + AZD7762; first compound 2 µM): 0.572
- relative viability (VX-702 + Olaparib; first compound 0.02 µM): 0.772
- relative viability (VX-702 + Olaparib; first compound 0.2 µM): 0.878
- relative viability (VX-702 + Olaparib; first compound 0.6325 µM): 0.887
- relative viability (VX-702 + Olaparib; first compound 2 µM): 0.893
- relative viability (Dabrafenib + Palbociclib; first compound 0.009487 µM): 0.532
- relative viability (Dabrafenib + Palbociclib; first compound 0.09487 µM): 0.523
- relative viability (Dabrafenib + Palbociclib; first compound 0.3 µM): 0.58
